The source of these data is article PMC4313523, “Decolorization of Anthraquinonic Dyes from Textile Effluent Using Horseradish Peroxidase: Optimization and Kinetic Study” (The Scientific World Journal, 2015).

In assay [1] the test system is T1, horseradish peroxidase (HRP).
T1 construct: gene PRXC1A; commercial enzyme from Sigma-Aldrich, 250 purpurogallin units per mg
As to the kind of experiment: dye decolorization initial rates, fit to ping-pong bi-bi model with dye inhibition. The class given is biochemical. As to conditions: substrate inhibition (dead-end complex). From the text:
dye decolorization initial rates, fit to ping-pong bi-bi model with dye inhibition on horseradish peroxidase (HRP)

For assay [2] the test system is unchanged. Nature of the assay: dye decolorization initial rates, fit to ping-pong bi-bi model with H2O2 inhibition (best fit). The assay is classed as biochemical. As to conditions: read-out: Hydrogen peroxide inhibition.
From the text: dye decolorization initial rates, fit to ping-pong bi-bi model with H2O2 inhibition (best fit) on horseradish peroxidase (HRP)

Read-outs that look alike come from different tables or passages of the source.

Turning to `Cc1cc(C)c(Nc2cc(S(=O)(=O)O)c(N)c3c2C(=O)c2ccccc2C3=O)c(C)c1NC(=O)C(Br)=CBr` [AB 225, C.I. Acid Blue 225], in assay [1] (H2O2 fixed at 0.1 mM, dye 0.015-0.051 mM, pH 5.5, 24 °C, 0.04 IU/mL HRP, R2 0.9602), the Dye inhibition was 0.0126 mM. Further, the Km in assay [2] (co-substrate H2O2 varied at dye 0.029 mM, pH 5.5, 24 °C, 0.04 IU/mL HRP, R2 0.9908) is 152 µM.
Regarding C.I. Acid Violet 109 [AV 109], the Dye inhibition in assay [1] (H2O2 fixed at 0.06 mM, dye 0.012-0.043 mM, pH 5.25, 24 °C, 0.15 IU/mL HRP, R2 0.9225) stood at 0.0080 mM. Also, in assay [2] (co-substrate H2O2 varied at dye 0.018 mM, pH 5.25, 24 °C, 0.15 IU/mL HRP, R2 0.9902), the Km is 330 µM.
